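Grown in 96-well plates, cells were treated for 48 hours with each compound at five concentrations. Insufficient inhibition: endpoint recorded as highest concentration tested. The concentration for full growth arrest is given as TGI.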 Bounds are passed on as bounds.

Among the test systems are OVCAR-5 ovarian; HCC-2998 colon; HCT-15 colon; COLO 205 colon; SK-MEL-2 melanoma; MDA-N; UO-31 renal; RPMI-8226 leukemia; SW-620 colon; U251 CNS.
Test in all cases: NCI anticancer screen, dose series, 48 h

With `Cc1ccc(C(=O)Nc2ccc(CP(=O)(O)O)cc2CP(=O)(O)O)cc1N`, the TGI in the test on OVCAR-5 ovarian, in the test on HCC-2998 colon, in the test on HCT-15 colon, in the test with COLO 205 colon, in the test on SK-MEL-2 melanoma and with MDA-N was above 100 µM throughout. In addition, the TGI in the test with UO-31 renal, with RPMI-8226 leukemia, in the test on SW-620 colon and in the test on U251 CNS was above 100 µM in each case.
Take `Cc1n[nH]c(=O)n1-n1cccc1`: the TGI in the test with OVCAR-5 ovarian, in the test with HCC-2998 colon, in the test on HCT-15 colon, in the test with COLO 205 colon, in the test on SK-MEL-2 melanoma and in the test with MDA-N was above 100 µM each time. For the same compound, the TGI in the test with UO-31 renal, with RPMI-8226 leukemia, in the test with SW-620 colon and with U251 CNS was above 100 µM throughout.
Regarding `O=C(O)CCCc1ccc2c(c1)C(C(=O)O)CC2` (stereo not given), the TGI in the test on OVCAR-5 ovarian, in the test with HCC-2998 colon, in the test on HCT-15 colon, in the test on COLO 205 colon, in the test with SK-MEL-2 melanoma and with MDA-N was above 100 µM throughout. Also, the TGI with UO-31 renal, in the test with RPMI-8226 leukemia, with SW-620 colon and in the test with U251 CNS was above 100 µM each time.
For the compound `CC1(C)C(=O)/C(=C/c2ccccc2)C(C)(C)C1(C)C`, the TGI in the test on OVCAR-5 ovarian, in the test on HCC-2998 colon, in the test on HCT-15 colon, with COLO 205 colon, with SK-MEL-2 melanoma and in the test on MDA-N was above 100 µM in each case. For the same compound, the TGI in the test on UO-31 renal, with RPMI-8226 leukemia, in the test with SW-620 colon and in the test on U251 CNS was above 100 µM throughout.
For the compound `CC(=O)Oc1cc2c(cc1OCC(F)(F)F)[C@H]1CC[C@]3(C)[C@@H](OC(C)=O)CC[C@H]3[C@@H]1CC2=O`, the TGI with OVCAR-5 ovarian is 44.5 µM; in the test with HCC-2998 colon it was 67.3 µM; in the test on HCT-15 colon it was above 88 µM; with COLO 205 colon, 89.6 µM; in the test with SK-MEL-2 melanoma, 44.7 µM; with MDA-N, above 100 µM. In addition, the TGI with UO-31 renal is 42.2 µM; in the test on RPMI-8226 leukemia, 68.8 µM; in the test with SW-620 colon, above 92.4 µM; in the test with U251 CNS it was above 74.1 µM.
As to `Cc1cccc2c1nc1n2C(=O)c2ccccc2-1`, the TGI in the test with OVCAR-5 ovarian, with HCC-2998 colon, in the test with HCT-15 colon, in the test on COLO 205 colon, with SK-MEL-2 melanoma and with MDA-N was above 100 µM each time. In addition, the TGI with UO-31 renal, with RPMI-8226 leukemia, with SW-620 colon and in the test on U251 CNS was above 100 µM in each case.
For `O=C(/C=C/c1ccccc1)c1cc(CN2CCOCC2)c(O)c(CN2CCOCC2)c1`, the TGI in the test on OVCAR-5 ovarian came to 36.2 µM; in the test on HCC-2998 colon, 33.7 µM; in the test on HCT-15 colon, 29.7 µM; in the test with COLO 205 colon it was 23.6 µM; with SK-MEL-2 melanoma it was 61.8 µM; in the test with MDA-N it was 39 µM. Besides, the TGI in the test with UO-31 renal was 31.3 µM; with RPMI-8226 leukemia, 21.4 µM; in the test on SW-620 colon, 28.9 µM; in the test on U251 CNS it was 16.3 µM.
Regarding `C[C@H]1CCC/C=C/[C@@H]2C[C@H](OC3OC(CO)C(O)C(O)C3O)C[C@H]2[C@H](O)/C=C/C(=O)O1` (stereo not given in full), the TGI in the test with OVCAR-5 ovarian was above 100 µM; in the test with HCC-2998 colon, above 100 µM; in the test with HCT-15 colon, above 100 µM; in the test with COLO 205 colon, 31.9 µM; in the test on SK-MEL-2 melanoma, above 100 µM; with MDA-N it was above 100 µM. The TGI in the test on UO-31 renal, with RPMI-8226 leukemia, with SW-620 colon and with U251 CNS was above 100 µM each time.
As for `CC(C)OC(=O)C(NC(=O)C(CC(=O)OCc1ccccc1)NC(=O)OCc1ccccc1)NC(=O)C1C(C)(C)CCC1(C)C` (stereo not given), the TGI was above 55.6 µM in the test on OVCAR-5 ovarian; above 56.5 µM with HCC-2998 colon; 30.7 µM in the test with HCT-15 colon; 9.27 µM in the test with COLO 205 colon; 58.4 µM in the test with SK-MEL-2 melanoma; 24.2 µM in the test with MDA-N. Besides, the TGI worked out at 13.4 µM in the test on UO-31 renal, 24.2 µM with RPMI-8226 leukemia, 10.8 µM in the test with SW-620 colon and 4.68 µM in the test with U251 CNS.
Regarding `Cc1cc2nc(N3C(=O)/C(=C/Cc4ccco4)N=C3c3ccccc3)sc2cc1C`, the TGI was above 100 µM in the test with OVCAR-5 ovarian; 55.7 µM in the test with HCC-2998 colon; above 100 µM in the test on HCT-15 colon; above 100 µM with COLO 205 colon; above 100 µM in the test on SK-MEL-2 melanoma; 30 µM in the test with MDA-N. Also, the TGI with UO-31 renal, in the test on RPMI-8226 leukemia, in the test with SW-620 colon and in the test with U251 CNS was above 100 µM throughout.
On to `C/C(=N\NC(=S)NC(C)(C)C)c1nc2ncccc2[nH]1`, for which the TGI in the test with OVCAR-5 ovarian is above 21.7 µM; in the test with HCC-2998 colon it was above 68.6 µM; with HCT-15 colon, above 100 µM; in the test with COLO 205 colon, above 31.6 µM; with SK-MEL-2 melanoma, above 80.3 µM; in the test with MDA-N, above 100 µM. Also, the TGI is 5.82 µM in the test on UO-31 renal, above 100 µM in the test with RPMI-8226 leukemia, above 100 µM in the test with SW-620 colon and above 100 µM in the test with U251 CNS.
Take `C/C(=N/NC(=S)Nc1ccc(C)cc1)c1ccccn1`: the TGI with OVCAR-5 ovarian turned out to be 9.55 µM; with HCC-2998 colon, 18.6 µM; with HCT-15 colon, 17.6 µM; in the test with COLO 205 colon, 1.95 µM; in the test on SK-MEL-2 melanoma, 13.9 µM; in the test on MDA-N it was 13.8 µM. The TGI in the test on UO-31 renal is 12.6 µM; in the test with RPMI-8226 leukemia, 25.7 µM; in the test with SW-620 colon, 18.6 µM; in the test with U251 CNS, 14.8 µM.
Regarding `O=C(N/N=C/c1ccccc1)c1c(F)c(F)c(F)c(F)c1F`, the TGI in the test on OVCAR-5 ovarian, with HCC-2998 colon, in the test on HCT-15 colon, in the test on COLO 205 colon, in the test with SK-MEL-2 melanoma and in the test with MDA-N was above 100 µM each time. The TGI in the test on UO-31 renal, in the test with RPMI-8226 leukemia, with SW-620 colon and in the test with U251 CNS was above 100 µM throughout.
As for `Cc1nc(C(=Nc2ccc(Br)cc2)Nn2cnnc2)no1`, the TGI in the test with OVCAR-5 ovarian, with HCC-2998 colon, with HCT-15 colon, with COLO 205 colon, in the test with SK-MEL-2 melanoma and in the test with MDA-N was above 100 µM throughout. For the same compound, the TGI in the test on UO-31 renal, with RPMI-8226 leukemia, in the test on SW-620 colon and in the test with U251 CNS was above 100 µM in each case.
Turning to `O=c1[nH]nc(Nc2ccc(Cl)cc2)c2nnn(C3CCCCC3)c12`, the TGI in the test on OVCAR-5 ovarian, in the test with HCC-2998 colon, in the test on HCT-15 colon, with COLO 205 colon, in the test with SK-MEL-2 melanoma and in the test with MDA-N was above 100 µM each time. Also, the TGI in the test on UO-31 renal is above 100 µM; in the test with RPMI-8226 leukemia, above 100 µM; in the test with SW-620 colon, above 100 µM; in the test with U251 CNS, 91 µM.
Take `Nc1c(C(=O)O)c2ccc([N+](=O)[O-])cc2c(=O)n1-c1nc2ccccc2s1`: the TGI in the test with OVCAR-5 ovarian, in the test with HCC-2998 colon, in the test with HCT-15 colon, in the test on COLO 205 colon, with SK-MEL-2 melanoma and in the test with MDA-N was above 100 µM in each case. Also, the TGI in the test with UO-31 renal, in the test on RPMI-8226 leukemia, with SW-620 colon and in the test with U251 CNS was above 100 µM throughout.
As for `CC(C)(NO)/C(=N\O)c1ccccc1`, the TGI in the test with OVCAR-5 ovarian, with HCC-2998 colon, with HCT-15 colon, with COLO 205 colon, with SK-MEL-2 melanoma and with MDA-N was above 10 µM throughout. The TGI in the test with UO-31 renal, in the test on RPMI-8226 leukemia, in the test with SW-620 colon and in the test on U251 CNS was above 10 µM in each case.
Regarding `CCCCCCCCCCCCCCCCNc1nc(=O)n(C2OC(C)C(O)C2O)cc1F` (stereo not given), the TGI with OVCAR-5 ovarian stood at 36.7 µM; in the test with HCC-2998 colon, 31 µM; with HCT-15 colon, 29.1 µM; with COLO 205 colon it was 58.7 µM; with SK-MEL-2 melanoma it was 38.9 µM; in the test on MDA-N, 39.3 µM. Also, the TGI turned out to be 27.2 µM in the test with UO-31 renal, 33.9 µM with RPMI-8226 leukemia, 46.8 µM in the test with SW-620 colon and 54.4 µM with U251 CNS.
As to `O=c1[nH]c2c(Nc3c4ccccc4nc4ccccc34)c([N+](=O)[O-])c(Nc3c4ccccc4nc4ccccc34)c([N+](=O)[O-])c2[nH]1`, the TGI turned out to be 5.02 µM with OVCAR-5 ovarian; 3.5 µM with HCC-2998 colon; 6.98 µM in the test on HCT-15 colon; 5.02 µM with COLO 205 colon; 3.93 µM in the test on SK-MEL-2 melanoma; 8.49 µM in the test with MDA-N. In addition, the TGI with UO-31 renal is 2.76 µM; in the test on RPMI-8226 leukemia, 8.27 µM; in the test on SW-620 colon, above 100 µM; with U251 CNS it was 8.35 µM.
Consider `CC1(C)CCC[C@@]2(C)C1CC[C@@]1(CO)O[C@H](C3=CC(=O)OC3O)C[C@H]12` (stereo not given in full), for which the TGI with OVCAR-5 ovarian was 37.5 µM; with HCC-2998 colon, 31.3 µM; in the test on HCT-15 colon, 23.5 µM; in the test with COLO 205 colon, 23.2 µM; in the test with SK-MEL-2 melanoma it was 28.9 µM; with MDA-N it was 25.8 µM. For the same compound, the TGI in the test on UO-31 renal is 29.2 µM; in the test on RPMI-8226 leukemia, above 36.1 µM; with SW-620 colon, 22.3 µM; with U251 CNS, 28.5 µM.

(Values after PubChem BioAssay (NCI).)
